Values quoted from earlier work, collected in patent publication US8062666B2 (priority 2001, dated 2011).
Like-named read-outs stand apart in the source and are kept apart here.

Tests used:
[1] = 0.2 M sodium chloride
[2] = coated spheroid extended release dosage form of WO 99/22724, dissolution specification

In the case of `COc1ccc(C(CN(C)C)C2(O)CCCCC2)cc1.Cl` (racemic) [Venlafaxine hydrochloride, (R/S)-1-[2-(dimethylamino)-1-(4-methoxyphenyl)-ethyl]cyclohexanol hydrochloride], the “octanol:water partition coefficient” value [1] is given as 0.43, the “time at which peak blood plasma levels appeared” value (conventional release dosage forms (tablets)) is given as 2 to 4 h and the “time for which plasma levels rose after administration (time to peak)” value (extended release dosage forms) is given as “five to eight”. The “Average % venlafaxine HCL release” value ([2]; 2 hrs) was under 30%, the “Average % venlafaxine HCL release” value ([2]; 4 hrs) was 30-55% and the “Average % venlafaxine HCL release” value ([2]; 8 hrs) was 55-80%. For the same compound, the “Average % venlafaxine HCL release” value ([2]; 12 hrs) was 65-90% and the “Average % venlafaxine HCL release” value ([2]; 24 hrs) was over 80%.
